Assay results from patent US11771709B2, “ALK protein degradation agent and anti-tumor application thereof” (ShanghaiTech University, priority 2017, dated 2023).

Legend:
[1] = target: T1, ALK protein in H3122 (EML4-ALK) cells (Homo sapiens, UniProt Q9UM73); assay: Western blot of ALK protein level (degradation, DC50), ALK phosphorylation and downstream signaling in H3122 cells; type: cell-based; conditions: for DC50: ALK protein degradation in H3122 cells
T1 construct: EML4 (Echinoderm microtubule-associated protein-like 4, Q9HC35) fusion partner, variant 1; host or cells: NCI-H3122 lung adenocarcinoma cells; the other entry of the earlier key: EML4 (Q9HC35, Echinoderm microtubule-associated protein-like 4)

[2] = system: NCI-H3122 (EML4-ALK, V1) cells; assay: Growth inhibition IC50 in lung cancer H3122 cells (Cell Titer Blue / Cell Titer Glo); conditions: for IC50: Homo sapiens, NCI-H3122, H3122 cells
Procedure: (§1) SR (NPM-ALK) and NCI-H2228 (EML4-ALK, V3) cells were purchased from ATCC. […] All Cells were cultured in RPMI1640 medium with 10% FBS and Penicillin-Streptomycin in 37° C. incubator with 5% CO2.
(§2) Cells were seeded at specific density in 96 well plates one day before treatment. […] Viable cells were measured via CCK8 reagent and IC50s were calculated via Prism Graphad. Experiments were repeated at least three times.

[3] = system: U118MG cells (FIG-ROS1 gene fusion); assay: Growth inhibition IC50 in ROS1 mutant glioblastoma cell line U118MG (72 hours); type: cell-based; conditions: Homo sapiens, U-118-MG, 72 h, read-out: Half Inhibitory Concentration (IC50) Mean
[4] = system: MOLM13 cells (FLT3-ITD); assay: Growth inhibition IC50 in FLT3-ITD AML cell line MOLM13; type: cell-based; conditions: Homo sapiens, MOLM-13, read-out: Half Inhibitory Concentration (IC50) Mean
[5] = system: SR (NPM-ALK) cells; assay: Growth inhibition IC50 in ALCL SR cells (CCK8/WST, 72 hours); type: cell-based; conditions: SR cells; for IC50: WST, Ceritinib based ALK PROTAD compounds (Table 5)
Procedure: as §1, §2

T1 sequence (Q9UM73 with tags, fused parts or gaps): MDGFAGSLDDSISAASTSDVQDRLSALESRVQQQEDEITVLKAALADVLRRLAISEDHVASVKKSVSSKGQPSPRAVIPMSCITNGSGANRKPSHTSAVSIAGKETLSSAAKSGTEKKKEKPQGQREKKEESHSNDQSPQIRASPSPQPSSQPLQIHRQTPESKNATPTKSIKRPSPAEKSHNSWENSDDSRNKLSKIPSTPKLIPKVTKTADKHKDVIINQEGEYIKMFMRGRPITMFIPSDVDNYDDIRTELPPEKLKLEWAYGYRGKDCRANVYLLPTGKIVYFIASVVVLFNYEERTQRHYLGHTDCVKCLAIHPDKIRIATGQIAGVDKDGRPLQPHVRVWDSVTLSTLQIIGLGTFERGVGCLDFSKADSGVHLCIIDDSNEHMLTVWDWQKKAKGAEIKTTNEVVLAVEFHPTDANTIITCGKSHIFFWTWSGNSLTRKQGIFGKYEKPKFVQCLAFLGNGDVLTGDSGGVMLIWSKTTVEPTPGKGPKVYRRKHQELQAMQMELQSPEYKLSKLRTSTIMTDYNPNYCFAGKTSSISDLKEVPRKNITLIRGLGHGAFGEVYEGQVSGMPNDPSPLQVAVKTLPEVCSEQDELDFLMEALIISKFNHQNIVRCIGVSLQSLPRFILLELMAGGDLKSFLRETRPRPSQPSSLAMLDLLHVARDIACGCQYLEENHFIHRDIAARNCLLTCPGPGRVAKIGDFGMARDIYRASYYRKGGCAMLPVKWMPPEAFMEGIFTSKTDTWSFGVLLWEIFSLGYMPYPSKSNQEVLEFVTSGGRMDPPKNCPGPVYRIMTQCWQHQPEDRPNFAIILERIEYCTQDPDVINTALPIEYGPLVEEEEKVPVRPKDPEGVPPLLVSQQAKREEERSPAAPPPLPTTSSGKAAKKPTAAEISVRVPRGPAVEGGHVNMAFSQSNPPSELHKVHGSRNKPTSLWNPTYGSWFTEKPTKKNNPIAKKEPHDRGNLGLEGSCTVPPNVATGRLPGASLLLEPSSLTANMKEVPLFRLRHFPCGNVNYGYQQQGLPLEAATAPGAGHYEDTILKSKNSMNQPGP

| Compound | DC50 [1] | IC50 ([2]; CTB (Cell Titer Blue)) | also measured |
| --- | --- | --- | --- |
| Cc1cc(Nc2ncc(Cl)c(Nc3ccccc3S(=O)(=O)C(C)C)n2)c(OC(C)C)cc1C1CCN(C(=O)CCCCCCCCC(=O)N[C@H](C(=O)N2C[C@H](O)C[C@H]2C(=O)NCc2ccc(-c3scnc3C)cc2)C(C)(C)C)CC1 [SIAIS074025, (2S,4R)-1-((S)-2-(10-(4-(4-((5-chloro-4-((2-(isopropylsulfonyl)phenyl)amino)pyrimidin-2-yl)amino)-5-isopropoxy-2-methylphenyl)piperidin-1-yl)-10-oxodecanamido)-3,3-dimethylbutanoyl)-4-hydroxy-N-(4-(4-methylthiazol-5-yl)benzyl)pyrrolidine-2-carboxamide] | 100 to 500 nM | 1240 nM |  |
| Cc1cc(Nc2ncc(Cl)c(Nc3ccccc3S(=O)(=O)C(C)C)n2)c(OC(C)C)cc1C1CCN(C(=O)CCCCCCCC(=O)N[C@H](C(=O)N2C[C@H](O)C[C@H]2C(=O)NCc2ccc(-c3scnc3C)cc2)C(C)(C)C)CC1 [SIAIS074024, (2S,4R)-1-((S)-2-(9-(4-(4-((5-chloro-4-((2-(isopropylsulfonyl)phenyl)amino)pyrimidin-2-yl)amino)-5-isopropoxy-2-methylphenyl)piperidin-1-yl)-9-oxononanamido)-3,3-dimethylbutanoyl)-4-hydroxy-N-(4-(4-methylthiazol-5-yl)benzyl)pyrrolidine-2-carboxamide] | 10 to 50 nM | 721 nM | concentration at which ALK protein level was reduced ([1]; H3122 cells, western blot): 50 nM |
| C[C@@H](Oc1cc(-c2cnn(C3CCNCC3)c2)cnc1N)c1c(Cl)ccc(F)c1Cl [Crizotinib, reference compound] |  |  | IC50 [3]: 2570 nM; IC50 [4]: 291 nM |
| Cc1cc(Nc2ncc(Cl)c(Nc3ccccc3S(=O)(=O)C(C)C)n2)c(OC(C)C)cc1C1CCN(C(=O)CCCCCC(=O)N[C@H](C(=O)N2C[C@H](O)C[C@H]2C(=O)NCc2ccc(-c3scnc3C)cc2)C(C)(C)C)CC1 [SIAIS074022, (2S,4R)-1-((S)-2-(7-(4-(4-((5-chloro-4-((2-(isopropylsulfonyl)phenyl)amino)pyrimidin-2-yl)amino)-5-isopropoxy-2-methylphenyl)piperidin-1-yl)-7-oxoheptanamido)-3,3-dimethylbutanoyl)-4-hydroxy-N-(4-(4-methylthiazol-5-yl)benzyl)pyrrolidine-2-carboxamide] | 20 to 100 nM | 269 nM |  |
| Cc1cc(Nc2ncc(Cl)c(Nc3ccccc3S(=O)(=O)C(C)C)n2)c(OC(C)C)cc1C1CCN(C(=O)CCOCCOCCOCCNc2cccc3c2C(=O)N(C2CCC(=O)NC2=O)C3=O)CC1 (centres unmarked) [SIAIS151028, 4-((2-(2-(2-(3-(4-(4-((5-chloro-4-((2-(isopropylsulfonyl)phenyl)amino)pyrimidin-2-yl)amino)-5-isopropoxy-2-methylphenyl)piperidin-1-yl)-3-oxopropoxy)ethoxy)ethoxy)ethyl)amino)-2-(2,6-dioxopiperidin-3-yl)isoindoline-1,3-dione] | 20 to 100 nM | 6 nM | IC50 [5]: 38 nM; IC50 ([2]; CTG (Cell Titer Glo)): 80 nM |
| Cc1cc(Nc2ncc(Cl)c(Nc3ccccc3S(=O)(=O)C(C)C)n2)c(OC(C)C)cc1C1CCN(C(=O)CCOCCOCCOCCOCCOCCNc2cccc3c2C(=O)N(C2CCC(=O)NC2=O)C3=O)CC1 (centres unmarked) [SIAIS151029, 4-((18-(4-(4-((5-chloro-4-((2-(isopropylsulfonyl)phenyl)amino)pyrimidin-2-yl)amino)-5-isopropoxy-2-methylphenyl)piperidin-1-yl)-18-oxo-3,6,9,12,15-pentaoxaoctadecyl)amino)-2-(2,6-dioxopiperidin-3-yl)isoindoline-1,3-dione] | 10 to 50 nM | 23 nM | IC50 ([2]; CTG (Cell Titer Glo)): 95 nM |
| Cc1cc(Nc2ncc(Cl)c(Nc3ccccc3S(=O)(=O)C(C)C)n2)c(OC(C)C)cc1C1CCN(C(=O)CCCCCCC(=O)N[C@H](C(=O)N2C[C@H](O)C[C@H]2C(=O)NCc2ccc(-c3scnc3C)cc2)C(C)(C)C)CC1 [SIAIS074008, (2S,4R)-1-((S)-2-(8-(4-(4-((5-chloro-4-((2-(isopropylsulfonyl)phenyl)amino)pyrimidin-2-yl)amino)-5-isopropoxy-2-methylphenyl)piperidin-1-yl)-8-oxooctanamido)-3,3-dimethylbutanoyl)-4-hydroxy-N-(4-(4-methylthiazol-5-yl)benzyl)pyrrolidine-2-carboxamide] |  | 428 nM | growth inhibition effect [5]: IC50 at the nano mole range; growth inhibition effect ([2]; H3122 cells): IC50 at the nano mole range |
| Cc1cc(Nc2ncc(Cl)c(Nc3ccccc3S(=O)(=O)C(C)C)n2)c(OC(C)C)cc1C1CCN(C(=O)CNc2cccc3c2C(=O)N(C2CCC(=O)NC2=O)C3=O)CC1 (centres unmarked) [SIAIS151037, 4-((2-(4-(4-((5-chloro-4-((2-(isopropylsulfonyl)phenyl)amino)pyrimidin-2-yl)amino)-5-isopropoxy-2-methylphenyl)piperidin-1-yl)-2-oxoethyl)amino)-2-(2,6-dioxopiperidin-3-yl)isoindoline-1,3-dione] | 50 to 100 nM | 151 nM |  |
| Cc1cc(Nc2ncc(Cl)c(Nc3ccccc3S(=O)(=O)C(C)C)n2)c(OC(C)C)cc1C1CCN(C(=O)CCCC(=O)N[C@H](C(=O)N2C[C@H](O)C[C@H]2C(=O)NCc2ccc(-c3scnc3C)cc2)C(C)(C)C)CC1 [SIAIS074018, (2S,4R)-1-((S)-2-(5-(4-(4-((5-chloro-4-((2-(isopropylsulfonyl)phenyl)amino)pyrimidin-2-yl)amino)-5-isopropoxy-2-methylphenyl)piperidin-1-yl)-5-oxopentanamido)-3,3-dimethylbutanoyl)-4-hydroxy-N-(4-(4-methylthiazol-5-yl)benzyl)pyrrolidine-2-carboxamide] | 100 to 500 nM | 209 nM |  |
| Cc1cc(Nc2ncc(Cl)c(Nc3ccccc3S(=O)(=O)C(C)C)n2)c(OC(C)C)cc1C1CCN(C(=O)CCCCC(=O)N[C@H](C(=O)N2C[C@H](O)C[C@H]2C(=O)NCc2ccc(-c3scnc3C)cc2)C(C)(C)C)CC1 [SIAIS074021, (2S,4R)-1-((S)-2-(6-(4-(4-((5-chloro-4-((2-(isopropylsulfonyl)phenyl)amino)pyrimidin-2-yl)amino)-5-isopropoxy-2-methylphenyl)piperidin-1-yl)-6-oxohexanamido)-3,3-dimethylbutanoyl)-4-hydroxy-N-(4-(4-methylthiazol-5-yl)benzyl)pyrrolidine-2-carboxamide] | 50 to 100 nM | 125 nM |  |
| Cc1cc(Nc2ncc(Cl)c(Nc3ccccc3S(=O)(=O)C(C)C)n2)c(OC(C)C)cc1C1CCN(C(=O)CCOCCOCCOCCOCCC(=O)N[C@H](C(=O)N2C[C@H](O)C[C@H]2C(=O)NCc2ccc(-c3scnc3C)cc2)C(C)(C)C)CC1 [SIAIS151040, (2S,4R)-1-((S)-2-(tert-butyl)-19-(4-(4-((5-chloro-4-((2-(isopropylsulfonyl)phenyl)amino)pyrimidin-2-yl)amino)-5-isopropoxy-2-methylphenyl)piperidin-1-yl)-4,19-dioxo-7,10,13,16-tetraoxa-3-azanonadecanoyl)-4-hydroxy-N-(4-(4-methylthiazol-5-yl)benzyl)pyrrolidine-2-carboxamide] |  | 141 nM |  |
| Cc1cc(Nc2ncc(Cl)c(Nc3ccccc3S(=O)(=O)C(C)C)n2)c(OC(C)C)cc1C1CCN(C(=O)CCOCCOCCNc2cccc3c2C(=O)N(C2CCC(=O)NC2=O)C3=O)CC1 (centres unmarked) [SIAIS151023, 4-((2-(2-(3-(4-(4-((5-chloro-4-((2-(isopropylsulfonyl)phenyl)amino)pyrimidin-2-yl)amino)-5-isopropoxy-2-methylphenyl)piperidin-1-yl)-3-oxopropoxy)ethoxy)ethyl)amino)-2-(2,6-dioxopiperidin-3-yl)isoindoline-1,3-dione] | 10 to 100 nM | 15 nM | IC50 ([2]; CTG (Cell Titer Glo)): 76 nM |
| Cc1cc(Nc2ncc(Cl)c(Nc3ccccc3S(=O)(=O)C(C)C)n2)c(OC(C)C)cc1C1CCN(C(=O)CCOCCNc2cccc3c2C(=O)N(C2CCC(=O)NC2=O)C3=O)CC1 (centres unmarked) [SIAIS151031, 4-((2-(3-(4-(4-((5-chloro-4-((2-(isopropylsulfonyl)phenyl)amino)pyrimidin-2-yl)amino)-5-isopropoxy-2-methylphenyl)piperidin-1-yl)-3-oxopropoxy)ethyl)amino)-2-(2,6-dioxopiperidin-3-yl)isoindoline-1,3-dione] | 100 to 500 nM | 7 nM | IC50 [5]: 85 nM; IC50 ([2]; CTG (Cell Titer Glo)): 81 nM |
| Cc1cc(Nc2ncc(Cl)c(Nc3ccccc3S(=O)(=O)C(C)C)n2)c(OC(C)C)cc1C1CCN(C(=O)CCCNc2cccc3c2C(=O)N(C2CCC(=O)NC2=O)C3=O)CC1 (centres unmarked) [SIAIS151035, 4-((4-(4-(4-((5-chloro-4-((2-(isopropylsulfonyl)phenyl)amino)pyrimidin-2-yl)amino)-5-isopropoxy-2-methylphenyl)piperidin-1-yl)-4-oxobutyl)amino)-2-(2,6-dioxopiperidin-3-yl)isoindoline-1,3-dione] | 50 to 100 nM | 33 nM |  |
